Measured values reported in patent publication US11787847B2, “Method of identifying malodor modulating compounds” (FIRMENICH SA, priority 2017, dated 2023).
Each block holds one compound with its values, some of them ahead of it.

Experiments:
[1] = test system: cells that do not express the odorant receptors (HEK293T); assay: Mock transfection control experiment (Example 5); format: cell-based
Procedure: (§1) Functional dose-response experiments were performed to evaluate the level of DMTS activity of the modified cell line expressing individual putative DMTS receptors. Using a cell-based assay, mouse receptor Olfr1193, Olfr1093, Olfr1097, Olrf166, Olfr169, Olfr738 and Olfr742, and human receptor OR4S2 and OR52N5 were tested in an HEK293T cell line wherein the endogenous RTP1 gene has been activated and the odorant receptor chaperone protein was expressed (described in WO2016/201153). The mouse receptor genes were tagged with a Lucy-FLAG®-Rho tag combination and the human receptors were tagged with a Rho-FLAG® tag combination resulting in a tag:receptor fusion protein for the cell based assay. Receptor genes were co-transfected with the canonical olfactory human G-protein alpha subunit Golf gene and were exposed to increasing concentrations of the malodor odorant. Co-expression of the human Golf activates the Gs transduction pathway that leads to an internal cAMP increase upon binding to the appropriate ligand. Odorant-induced activity was detected by measuring the cAMP increase in the cytosol using an Homogeneous Time Resolved Fluorescence (HTRF) based kit (CisBio, cAMP dynamic 2 kit, cat. 62AM4PEJ). […]

[2] = test system: mouse receptors Olfr1193, Olfr1093, Olfr1097, Olfr166, Olfr169, Olfr738, Olfr742 and human odorant receptor OR4S2; assay: cAMP HTRF dose-response assay, DMTS/DMDS response profiles (Example 5); format: cell-based; conditions: increasing concentration of compound; relative to butyric acid control
Procedure: as §1

[3] = molecular target: T1, mouse receptor Olfr166 (Mus musculus, UniProt Q0VEL6); assay: cell-based dose-response, cAMP increase by HTRF, HEK293T cells (endogenous RTP1 activated) co-transfected with human Golf, Lucy-FLAG-Rho tagged receptor; conditions: FIG. 5, Example 5, SEQ ID NO: 8
T1 construct: cAMP HTRF
T1 sequence (Q0VEL6 1-312): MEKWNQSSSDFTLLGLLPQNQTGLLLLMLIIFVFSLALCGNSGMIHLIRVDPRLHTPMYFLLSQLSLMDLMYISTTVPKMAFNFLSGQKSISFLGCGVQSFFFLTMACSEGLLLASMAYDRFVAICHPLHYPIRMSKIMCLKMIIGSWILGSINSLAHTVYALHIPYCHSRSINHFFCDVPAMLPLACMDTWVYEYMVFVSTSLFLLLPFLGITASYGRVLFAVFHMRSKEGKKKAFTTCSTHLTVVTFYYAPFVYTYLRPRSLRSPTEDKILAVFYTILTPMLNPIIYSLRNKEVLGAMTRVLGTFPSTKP
Procedure: (§2) Functional dose-response experiments were performed to evaluate the level of DMTS activity of the modified cell line expressing individual putative DMTS receptors. Using a cell-based assay, mouse receptor Olfr1193, Olfr1093, Olfr1097, Olrf166, Olfr169, Olfr738 and Olfr742, and human receptor OR4S2 and OR52N5 were tested in an HEK293T cell line wherein the endogenous RTP1 gene has been activated and the odorant receptor chaperone protein was expressed (described in WO2016/201153). The mouse receptor genes were tagged with a Lucy-FLAG®-Rho tag combination and the human receptors were tagged with a Rho-FLAG® tag combination resulting in a tag:receptor fusion protein for the cell based assay. Receptor genes were co-transfected with the canonical olfactory human G-protein alpha subunit Golf gene and were exposed to increasing concentrations of the malodor odorant. Co-expression of the human Golf activates the Gs transduction pathway that leads to an internal cAMP increase upon binding to the appropriate ligand. Odorant-induced activity was detected by measuring the cAMP increase in the cytosol using an Homogeneous Time Resolved Fluorescence (HTRF) based kit (CisBio, cAMP dynamic 2 kit, cat. 62AM4PEJ). […] The activity levels are reported by the potency of the DMTS induced-response for each receptor as a measure of the EC50 value (the effective concentration at which the receptor responds at its half-maximal activation efficacy level for a given compound).
(§3) Functional dose-response experiments were performed to confirm the DMTS activity on the DMTS receptors identified in Example 2 and to further characterize their response to DMDS. Using the same cell-based assay described in Example 2, mouse receptors Olfr1193, Olfr1093, Olfr1097, Olfr166, Olfr169, Olfr738, Olfr742 and of human odorant receptor OR4S2 were tested with increasing concentration of DMTS, DMDS or butyric acid (control). […] A weak response for OR4S2 and Olfr169 to butyric acid was visible but was too weak to consider butyric acid as a representative ligand for these receptors. The activity levels are reported by the potency of DMTS or DMDS induced-response for each receptor as a measure of the EC50 value, EC50DMTS and EC50DMDS respectively. […] Competitive antagonists at the malodor binding site of these receptors have the potential to reduce the unpleasant perception of both DMTS and DMDS.

[4] = molecular target: T2, mouse receptor Olfr1093 (Mus musculus, UniProt B2RR12); assay: as above; conditions: FIG. 5, Example 5, SEQ ID NO: 4
T2 construct: cAMP HTRF
T2 sequence (B2RR12 1-322): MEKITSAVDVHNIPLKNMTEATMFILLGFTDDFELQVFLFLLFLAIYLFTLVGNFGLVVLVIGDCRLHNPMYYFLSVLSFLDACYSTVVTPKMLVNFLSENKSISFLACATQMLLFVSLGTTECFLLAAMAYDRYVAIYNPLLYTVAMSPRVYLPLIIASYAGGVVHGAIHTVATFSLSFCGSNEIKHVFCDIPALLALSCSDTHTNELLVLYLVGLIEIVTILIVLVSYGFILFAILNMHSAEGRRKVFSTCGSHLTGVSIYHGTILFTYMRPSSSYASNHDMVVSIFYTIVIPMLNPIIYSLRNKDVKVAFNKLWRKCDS
Procedure: as §2, §3

[5] = molecular target: T3, mouse receptor Olfr169 (Mus musculus, UniProt Q7TS53); assay: as above; conditions: FIG. 5, Example 5, SEQ ID NO: 10
T3 construct: cAMP HTRF
T3 sequence (Q7TS53 1-313): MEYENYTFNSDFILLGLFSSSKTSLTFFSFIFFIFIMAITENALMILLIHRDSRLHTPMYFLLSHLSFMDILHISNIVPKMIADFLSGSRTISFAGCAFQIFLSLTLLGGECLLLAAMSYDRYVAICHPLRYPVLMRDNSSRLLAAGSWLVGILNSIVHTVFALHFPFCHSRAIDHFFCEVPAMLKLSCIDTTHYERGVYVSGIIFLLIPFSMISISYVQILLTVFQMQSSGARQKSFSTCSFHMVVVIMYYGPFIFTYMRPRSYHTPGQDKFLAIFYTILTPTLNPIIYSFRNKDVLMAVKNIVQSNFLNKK
Procedure: as §2, §3

[6] = molecular target: T4, mouse receptor Olfr1193 (Mus musculus, UniProt A2AV13); assay: as above; conditions: FIG. 5, Example 5, SEQ ID NO: 2
T4 construct: cAMP HTRF
T4 sequence (A2AV13 1-318): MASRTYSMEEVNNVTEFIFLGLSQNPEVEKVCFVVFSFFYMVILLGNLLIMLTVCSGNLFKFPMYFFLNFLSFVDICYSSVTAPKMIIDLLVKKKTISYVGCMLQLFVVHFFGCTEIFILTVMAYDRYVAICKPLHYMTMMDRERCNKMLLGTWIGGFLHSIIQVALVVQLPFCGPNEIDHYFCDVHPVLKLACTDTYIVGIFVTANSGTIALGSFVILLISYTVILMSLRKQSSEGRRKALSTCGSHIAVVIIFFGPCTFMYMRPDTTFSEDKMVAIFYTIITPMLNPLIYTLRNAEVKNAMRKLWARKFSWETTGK
Procedure: as §2, §3

[7] = molecular target: T5, mouse receptor Olfr738 (Mus musculus, UniProt L7N1X7); assay: as above; conditions: FIG. 5, Example 5, SEQ ID NO: 12
T5 construct: cAMP HTRF
T5 sequence (L7N1X7 1-311): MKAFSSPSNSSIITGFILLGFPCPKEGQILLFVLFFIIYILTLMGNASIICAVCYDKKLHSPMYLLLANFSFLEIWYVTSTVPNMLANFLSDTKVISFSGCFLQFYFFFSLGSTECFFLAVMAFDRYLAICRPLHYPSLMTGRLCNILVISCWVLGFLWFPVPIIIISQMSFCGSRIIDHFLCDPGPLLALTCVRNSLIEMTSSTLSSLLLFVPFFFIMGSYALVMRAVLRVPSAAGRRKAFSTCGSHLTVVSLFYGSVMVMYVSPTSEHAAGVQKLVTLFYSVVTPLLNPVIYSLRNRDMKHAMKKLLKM
Procedure: as §2, §3

[8] = molecular target: T6, mouse receptor Olfr1097 (Mus musculus, UniProt Q8VGA2); assay: as above; conditions: FIG. 5, Example 5, SEQ ID NO: 6
T6 construct: cAMP HTRF
T6 sequence (Q8VGA2 1-315): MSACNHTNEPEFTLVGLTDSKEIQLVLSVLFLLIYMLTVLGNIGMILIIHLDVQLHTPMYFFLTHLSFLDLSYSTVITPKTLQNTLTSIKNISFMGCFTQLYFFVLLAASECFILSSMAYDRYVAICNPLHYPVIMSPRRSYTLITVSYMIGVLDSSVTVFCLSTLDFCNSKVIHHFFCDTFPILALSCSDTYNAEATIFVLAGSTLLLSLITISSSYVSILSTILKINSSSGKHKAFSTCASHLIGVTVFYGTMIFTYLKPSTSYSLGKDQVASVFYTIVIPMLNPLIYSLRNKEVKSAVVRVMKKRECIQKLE
Procedure: as §2, §3

[9] = molecular target: T7, mouse receptor Olfr742 (Mus musculus, UniProt A2RTP5); assay: as above; conditions: FIG. 5, Example 5, SEQ ID NO: 14
T7 construct: cAMP HTRF
T7 sequence (A2RTP5 1-311): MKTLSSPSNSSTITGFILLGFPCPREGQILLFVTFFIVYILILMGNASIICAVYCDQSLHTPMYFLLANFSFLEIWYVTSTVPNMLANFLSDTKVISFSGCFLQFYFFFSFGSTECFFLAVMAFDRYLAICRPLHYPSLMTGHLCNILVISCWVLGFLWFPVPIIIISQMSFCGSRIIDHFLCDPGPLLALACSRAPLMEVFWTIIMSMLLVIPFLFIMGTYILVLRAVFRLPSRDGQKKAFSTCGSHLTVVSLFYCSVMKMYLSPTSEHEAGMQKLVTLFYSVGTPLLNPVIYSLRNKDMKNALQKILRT
Procedure: as §2, §3

[10] = test system: Olfr169; assay: cAMP HTRF dose-response assay (Example 5), Olfr169; format: cell-based, mouse; conditions: increasing concentration
Procedure: as §1

[11] = test system: mouse receptor Olfr1193, Olfr1093, Olfr1097, Olrf166, Olfr169, Olfr738 and Olfr742, and human receptor OR4S2 and OR52N5; assay: cAMP HTRF dose-response assay in HEK293T cells expressing odorant receptors (Example 2); format: cell-based; conditions: increasing concentrations of odorant, receptors co-transfected with human Golf
[12] = molecular target: T8, OR4S2 (Homo sapiens, UniProt Q8NH73); assay: cAMP HTRF dose-response assay (Example 5), OR4S2; format: cell-based; design: expressed in transfected cells; conditions: increasing concentration
T8 sequence (Q8NH73 1-311): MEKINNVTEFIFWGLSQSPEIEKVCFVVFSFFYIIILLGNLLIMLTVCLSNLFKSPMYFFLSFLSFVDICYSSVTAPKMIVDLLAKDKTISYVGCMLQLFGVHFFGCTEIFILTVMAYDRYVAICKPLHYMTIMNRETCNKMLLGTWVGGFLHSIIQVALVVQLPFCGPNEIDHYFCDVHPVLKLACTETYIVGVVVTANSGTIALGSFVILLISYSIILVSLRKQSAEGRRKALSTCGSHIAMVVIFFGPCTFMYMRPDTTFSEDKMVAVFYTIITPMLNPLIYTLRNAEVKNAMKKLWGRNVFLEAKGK
Procedure: as §1

SMILES: CSSC [DMDS, dimethyl disulfide]
activity upon exposure in mock transfected cells [1]: did not show activity
receptor activity (cAMP increase) [2]: strong dose-dependent increase of the receptor activity
EC50 [3]: 12 µM
EC50 [4]: 458 µM
EC50 [5]: 102 µM
EC50 [6]: 40 µM
EC50 [7]: 355 µM
EC50 [8]: 87 µM
EC50 [9]: 69 µM

response to butyric acid (cAMP) [12]: weak response
SMILES: CCCC(=O)O [butyric acid]
response to butyric acid (cAMP) [10]: weak response
receptor activity (cAMP increase in the cytosol) [11]: not
